Source: US12268690B2, “Treatments for mutations in acute myeloid leukemia” (OREGON HEALTH & SCIENCE UNIVERSITY, priority 2018, dated 2025)

Tested on: freshly isolated mononuclear cells from AML samples
Test: Ex vivo functional drug screen (MTS viability, AUC) on primary AML samples, compared by mutation or clinical group
Type: cell-based, human
Details: NPM1:SRSF2:IDH2

COc1cc(Oc2ccnc3cc(OC)c(OC)cc23)ccc1NC(=O)NC(C)c1nccs1 (stereo not shown) [KI20227]
drug sensitivity mutant vs wild type (average difference in AUC; top left quadrant of volcano plot): KI20227
